From US20190008810A1, “METHOD FOR PREVENTION, TREATMENT AND ALLEVIATION OF INFECTIOUS DISEASES AND DISORDERS” (REPLICON HEALTH OY, priority 2016, published 2019)

Assays:
[1] = 4-day healthy human nutritional test, blood bilirubin; format: in vivo; conditions: 5-6 mg/kg/twice a day
Protocol: S4 had already participated in 4-day healthy volunteer test with the DGA Activation. In that earlier non-acute DGA dosing experiment the last dose of D-glyceric acid mixed into water was received previous night, i.e. 10-12 hours before the blood test. In this test the positive effects of the DGA Activation in health/subclinical stress were observed. […] This was the case for all tested subjects including S1 in Examples 1b-1d (see Table 1e below).

[2] = tested on: seasonal flu or similar infectious disease; format: in vivo, human
CRP = assay: Blood CRP in discontinuous MPTP/PD disease model; format: in vivo, mice
Protocol: In this Example, CRP results from 3 separate preclinical tests are presented and analyzed. First 4-day CRP test was conducted with 8 healthy mice using individuals as their own controls. Second 7-day CRP test was conducted in discontinuous disease model. And third also 7-day CRP test was conducted in continuous disease model. CRP present in mouse serum samples were analyzed using mouse CRP ELISA kit (GWB-3B960E, Genway Biotech Inc.). All blood samples were collected at the same time of the day.
In two other CRP tests, the effect of the DGA Activation in two disease models, continuous vs. discontinuous was analyzed. In FIG. 4b, results from discontinuous MPTP/PD disease model, and in FIG. 4c, results from continuous IPA/Dry Eye disease model. Logarithmic change of blood CRP during the 7-day disease follow up period of each mouse in all groups was calculated and the averages are presented in FIGS. 4b and 4c. (In both disease models, there was a 4-day priming with 50% DGA dose before activating the disease model and CRP test.)
Brief description of the disease models: 1) continuous IPA -model (see Example 1a) and 2) discontinuous MPTP/PD -model. MPTP (1-methyl-4-phenyl-1,2,3,6-tetrahydropyridine) is a neurotoxin precursor to MPP+, which causes symptoms of Parkinson's disease (PD). […] Diet consumption per cage is monitored carefully before and during the study follow-up period. […]

## O=C(O)[C@H](O)CO [DGA, D-glyceric acid]
[1]; subject S1
  S-Bil-Kj, 4 day change from zero control: −17.4%
[1]; subject S1, fasting blood, non-acute
  S-Bil, 4 day change from zero control: −19.1%
[1]; subject S2
  S-Bil, 4 day change from zero control: −22.8%
  S-Bil-Kj, 4 day change from zero control: −23.3%
[1]; subject S3
  S-Bil, 4 day change from zero control: −58.1%
  S-Bil-Kj, 4 day change from zero control: −58.4%
[1]; subject S4
  S-Bil, 4 day change from zero control: −12.6%
  S-Bil-Kj, 4 day change from zero control: −8.8%
[2]; S1
  time to alleviation of all symptoms of two-week long infection: 24 h
  time to visible alleviation: 12 to 24 h
[2]; S1, Monday 0130 pm after 2 doses of 3×200 mg Sunday night and 2×200 mg Monday morning, 37.0 on Sunday
  body temperature (fever): 36.62 celcius
[2]; S1, Monday 0700 pm
  body temperature: 36.61 celcius
[2]; human, in vivo
  time until prolonged mild disease state disappeared: 2 days
CRP; 4+7-day administration
  survival and health parameters: improved survival and health parameters
CRP; 7-day follow up after 4-day priming, p-value=0.015, pairwise p-value=0005
  blood CRP change vs 0-control: declined statistically significantly
